Laboratory results reported in ChEMBL document CHEMBL5260810, “Inhibition of bromodomain-containing protein 9 for the prevention of epigenetically-defined drug resistance” (Bioorg Med Chem Lett, 2017).

Experiments:
[1] = biological target: Insulin receptor (Homo sapiens) (UniProt P06213); assay: Inhibition of InsR (unknown origin) at 1 uM relative to control
NCI-H1666 = assay: Cytotoxicity against human NCI-H1666 cells measured after 8 days; assay type: functional, cell-based; settings: NCI-H1666, 192 h
[2] = biological target: SWI/SNF-related matrix-associated actin-dependent regulator of chromatin subfamily A member 4 (Homo sapiens, UniProt P51532); assay: Binding affinity to human partial length SMARCA4 (A1448 to S1575 residues) expressed in bacterial expression system by BROMOscan assay
SWI/SNF-related matrix-associated actin-dependent regulator of chromatin subfamily A member 4, sequence (P51532 whole entry, the tested form may be a part): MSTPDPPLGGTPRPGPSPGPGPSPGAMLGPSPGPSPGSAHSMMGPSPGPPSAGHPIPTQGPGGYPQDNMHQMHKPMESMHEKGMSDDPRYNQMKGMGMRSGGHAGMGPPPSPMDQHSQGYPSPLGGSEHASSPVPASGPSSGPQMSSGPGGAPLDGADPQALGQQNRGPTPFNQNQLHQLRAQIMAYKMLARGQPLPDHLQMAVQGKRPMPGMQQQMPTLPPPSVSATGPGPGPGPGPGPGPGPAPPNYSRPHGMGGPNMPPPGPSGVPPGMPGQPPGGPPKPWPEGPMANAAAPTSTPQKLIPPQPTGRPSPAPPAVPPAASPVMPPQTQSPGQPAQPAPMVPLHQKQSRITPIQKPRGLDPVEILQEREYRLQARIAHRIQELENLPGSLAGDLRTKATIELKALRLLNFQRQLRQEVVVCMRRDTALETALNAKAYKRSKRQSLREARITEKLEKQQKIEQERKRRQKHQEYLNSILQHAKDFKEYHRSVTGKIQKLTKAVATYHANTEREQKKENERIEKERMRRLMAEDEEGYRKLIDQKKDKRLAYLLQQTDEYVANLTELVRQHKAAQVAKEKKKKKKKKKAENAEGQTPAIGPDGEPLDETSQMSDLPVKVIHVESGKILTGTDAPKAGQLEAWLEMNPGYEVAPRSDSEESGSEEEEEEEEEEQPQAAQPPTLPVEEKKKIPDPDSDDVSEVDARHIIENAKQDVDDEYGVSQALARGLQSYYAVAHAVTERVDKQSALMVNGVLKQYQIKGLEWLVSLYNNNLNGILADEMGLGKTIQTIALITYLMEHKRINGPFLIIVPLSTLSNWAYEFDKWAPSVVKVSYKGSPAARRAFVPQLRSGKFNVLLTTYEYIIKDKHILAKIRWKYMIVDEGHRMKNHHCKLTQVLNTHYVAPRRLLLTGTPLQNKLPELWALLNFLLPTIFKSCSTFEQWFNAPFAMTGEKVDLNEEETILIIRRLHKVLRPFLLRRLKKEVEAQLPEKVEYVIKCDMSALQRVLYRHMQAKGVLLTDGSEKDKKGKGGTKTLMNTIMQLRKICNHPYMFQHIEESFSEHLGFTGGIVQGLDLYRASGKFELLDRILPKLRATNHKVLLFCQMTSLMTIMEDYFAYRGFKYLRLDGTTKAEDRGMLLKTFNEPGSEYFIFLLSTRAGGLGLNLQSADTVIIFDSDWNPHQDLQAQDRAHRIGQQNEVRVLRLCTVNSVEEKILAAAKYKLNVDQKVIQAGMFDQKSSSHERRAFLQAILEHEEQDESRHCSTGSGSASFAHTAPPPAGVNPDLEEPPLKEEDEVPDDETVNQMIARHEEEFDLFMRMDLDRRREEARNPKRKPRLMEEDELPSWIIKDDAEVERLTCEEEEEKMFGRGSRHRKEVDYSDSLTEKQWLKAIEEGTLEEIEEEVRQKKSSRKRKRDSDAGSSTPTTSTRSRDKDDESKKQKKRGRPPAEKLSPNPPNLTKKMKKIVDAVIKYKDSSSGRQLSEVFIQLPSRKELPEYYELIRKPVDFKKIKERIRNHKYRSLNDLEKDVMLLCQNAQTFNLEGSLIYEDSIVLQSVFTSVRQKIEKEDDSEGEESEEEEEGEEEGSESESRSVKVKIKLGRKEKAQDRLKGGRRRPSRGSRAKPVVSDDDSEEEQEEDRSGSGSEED

CAL-51 = assay: Cytotoxicity against human CAL-51 cells measured after 8 days; assay type: functional, cell-based; settings: CAL-51, 192 h
[3] = biological target: Mitogen-activated protein kinase 14 (Homo sapiens) (UniProt Q16539); assay: Inhibition of p38alpha (unknown origin) at 1 uM relative to control
Mitogen-activated protein kinase 14 (Homo sapiens), sequence (Q16539 whole entry): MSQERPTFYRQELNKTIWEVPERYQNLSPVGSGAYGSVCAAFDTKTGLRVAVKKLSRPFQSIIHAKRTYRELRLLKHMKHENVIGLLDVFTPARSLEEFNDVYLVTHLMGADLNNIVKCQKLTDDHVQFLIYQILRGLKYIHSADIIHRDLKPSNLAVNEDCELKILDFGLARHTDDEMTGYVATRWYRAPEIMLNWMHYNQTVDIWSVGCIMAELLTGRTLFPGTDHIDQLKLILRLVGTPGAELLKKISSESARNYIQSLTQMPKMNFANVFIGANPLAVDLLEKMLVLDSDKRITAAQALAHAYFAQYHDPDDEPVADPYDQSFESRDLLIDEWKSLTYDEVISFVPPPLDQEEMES

[4] = Cytotoxicity against human NCI-H2595 cells measured after 8 days; assay type: functional, cell-based; settings: NCI-H2595, 192 h
RL = assay: Cytotoxicity against human RL cells measured after 8 days; assay type: functional, cell-based; settings: 192 h
LoVo = assay: Cytotoxicity against human LoVo cells measured after 8 days; assay type: functional, cell-based; settings: 192 h
[5] = biological target: High affinity nerve growth factor receptor (Homo sapiens) (UniProt P04629); assay: Inhibition of TrkA (unknown origin) at 1 uM relative to control
NAMALVA = assay: Cytotoxicity against human NAMALVA cells measured after 8 days; assay type: functional, cell-based; settings: 192 h
[6] = Cytotoxicity against human KMS-28PE cells measured after 8 days; assay type: functional, cell-based; settings: 192 h
[7] = biological target: Ribosomal protein S6 kinase alpha-2 (Homo sapiens) (UniProt Q15349); assay: Inhibition of RSK3 (unknown origin) at 1 uM relative to control
[8] = biological target: Bromodomain-containing protein 3 (Homo sapiens, UniProt Q15059); assay: Binding affinity to human partial length BRD3 bromodomain 1 (P24 to E144 residues) expressed in bacterial expression system by BROMOscan assay
Bromodomain-containing protein 3, sequence (Q15059 whole entry, the tested form may be a part): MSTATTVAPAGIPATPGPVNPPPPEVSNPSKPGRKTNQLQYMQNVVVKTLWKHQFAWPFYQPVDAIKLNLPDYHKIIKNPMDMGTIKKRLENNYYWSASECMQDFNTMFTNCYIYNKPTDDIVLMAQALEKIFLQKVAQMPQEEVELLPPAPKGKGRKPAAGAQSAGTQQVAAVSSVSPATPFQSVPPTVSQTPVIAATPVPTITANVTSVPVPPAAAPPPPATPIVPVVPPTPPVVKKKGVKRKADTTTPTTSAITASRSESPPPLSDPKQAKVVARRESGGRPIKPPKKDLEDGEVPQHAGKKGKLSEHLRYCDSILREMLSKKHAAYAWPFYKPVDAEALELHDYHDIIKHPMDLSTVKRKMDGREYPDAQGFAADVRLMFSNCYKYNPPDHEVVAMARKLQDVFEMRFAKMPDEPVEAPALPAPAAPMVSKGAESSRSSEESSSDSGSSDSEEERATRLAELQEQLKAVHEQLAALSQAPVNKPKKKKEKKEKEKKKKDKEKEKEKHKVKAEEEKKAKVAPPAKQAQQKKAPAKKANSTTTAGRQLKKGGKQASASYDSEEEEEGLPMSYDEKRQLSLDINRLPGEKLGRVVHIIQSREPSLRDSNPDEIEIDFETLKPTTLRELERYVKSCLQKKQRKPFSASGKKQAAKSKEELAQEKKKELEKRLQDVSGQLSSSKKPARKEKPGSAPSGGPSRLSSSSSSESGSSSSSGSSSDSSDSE

RKO = assay: Cytotoxicity against human RKO cells measured after 8 days; assay type: functional, cell-based; settings: 192 h
Homo sapiens = organism: Homo sapiens; assay: Displacement of [3H]BRL 43694 from human recombinant 5-HT3 receptor at 10 uM after 120 mins by scintillation counting analysis relative to control
LCLC-97TM1 = assay: Cytotoxicity against human LCLC-97TM1 cells measured after 8 days; assay type: functional, cell-based; settings: LCLC-97TM1, 192 h
NCI-H520 = assay: Cytotoxicity against human NCI-H520 cells measured after 8 days; assay type: functional, cell-based; settings: NCI-H520, 192 h
[9] = biological target: T1, Interleukin-1 receptor-associated kinase 4 (Homo sapiens) (UniProt Q9NWZ3); assay: Inhibition of IRAK4 (unknown origin) at 1 uM relative to control
T1 sequence (whole entry): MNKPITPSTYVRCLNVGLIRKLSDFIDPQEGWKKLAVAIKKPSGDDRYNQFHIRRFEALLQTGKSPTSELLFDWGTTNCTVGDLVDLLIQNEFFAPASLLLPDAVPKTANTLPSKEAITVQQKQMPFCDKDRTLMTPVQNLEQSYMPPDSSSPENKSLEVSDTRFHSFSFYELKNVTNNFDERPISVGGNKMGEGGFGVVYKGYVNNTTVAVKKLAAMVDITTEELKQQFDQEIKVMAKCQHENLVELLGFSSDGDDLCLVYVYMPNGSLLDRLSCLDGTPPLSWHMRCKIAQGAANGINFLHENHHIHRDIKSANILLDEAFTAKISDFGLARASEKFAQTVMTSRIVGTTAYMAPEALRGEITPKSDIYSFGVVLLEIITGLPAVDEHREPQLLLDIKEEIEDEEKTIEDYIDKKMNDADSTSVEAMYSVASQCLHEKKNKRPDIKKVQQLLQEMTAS

HCT-15 = assay: Cytotoxicity against human HCT-15 cells measured after 8 days; assay type: functional, cell-based; settings: HCT-15, 192 h
Protein polybromo-1 = Protein polybromo-1 (Homo sapiens, UniProt Q86U86); assay: Binding affinity to human partial length PBRM1 bromodomain 5 (S645 to D766 residues) expressed in bacterial expression system by BROMOscan assay
[10] = Cytotoxicity against human OVTOKO cells measured after 8 days; assay type: functional, cell-based; settings: 192 h
KNS-62 = assay: Cytotoxicity against human KNS-62 cells measured after 8 days; assay type: functional, cell-based; settings: KNS-62, 192 h
[11] = biological target: Bromodomain-containing protein 4 (Homo sapiens, UniProt O60885); assay: Binding affinity to human partial length BRD4 bromodomain 1 long isoform (N44 to E168 residues) expressed in bacterial expression system by BROMOscan assay
Rattus norvegicus = organism: Rattus norvegicus; assay: Displacement of [3H]flunitrazepam from rat brain central BZD at 10 uM after 60 mins by radioligand binding assay relative to control
[12] = biological target: Receptor-interacting serine/threonine-protein kinase 2 (Homo sapiens) (UniProt O43353); assay: Inhibition of RIPK2 (unknown origin) at 1 uM relative to control
Receptor-interacting serine/threonine-protein kinase 2 (Homo sapiens), sequence (O43353 whole entry, the tested form may be a part, canonical isoform): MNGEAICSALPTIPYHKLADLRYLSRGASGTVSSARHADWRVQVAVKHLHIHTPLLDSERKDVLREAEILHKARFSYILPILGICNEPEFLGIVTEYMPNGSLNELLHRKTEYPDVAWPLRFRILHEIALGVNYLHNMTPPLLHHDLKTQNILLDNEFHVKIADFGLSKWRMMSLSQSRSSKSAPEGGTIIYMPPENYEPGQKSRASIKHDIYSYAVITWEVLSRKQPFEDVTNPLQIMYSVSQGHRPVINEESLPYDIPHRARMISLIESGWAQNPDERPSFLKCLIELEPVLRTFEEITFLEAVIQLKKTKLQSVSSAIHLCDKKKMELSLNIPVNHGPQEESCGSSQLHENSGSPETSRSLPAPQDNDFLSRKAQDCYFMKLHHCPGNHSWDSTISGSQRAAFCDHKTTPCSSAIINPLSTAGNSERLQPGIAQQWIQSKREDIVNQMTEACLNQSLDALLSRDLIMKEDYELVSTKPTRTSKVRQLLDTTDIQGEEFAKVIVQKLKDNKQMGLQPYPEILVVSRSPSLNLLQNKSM

[13] = biological target: Bromodomain-containing protein 2 (Homo sapiens, UniProt P25440); assay: Binding affinity to human partial length BRD2 bromodomain 1 long isoform (K71 to N194 residues) expressed in bacterial expression system by BROMOscan assay
UACC-62 = assay: Cytotoxicity against human UACC-62 cells measured after 8 days; assay type: functional, cell-based; settings: UACC-62, 192 h
MDA-MB-157 = assay: Cytotoxicity against human MDA-MB-157 cells measured after 8 days; assay type: functional, cell-based; settings: MDA-MB-157, 192 h
[14] = Cytotoxicity against human NCI-H322T cells measured after 8 days; assay type: functional, cell-based; settings: 192 h

Insulin receptor (Homo sapiens), sequence (P06213 28-758 limits assumed): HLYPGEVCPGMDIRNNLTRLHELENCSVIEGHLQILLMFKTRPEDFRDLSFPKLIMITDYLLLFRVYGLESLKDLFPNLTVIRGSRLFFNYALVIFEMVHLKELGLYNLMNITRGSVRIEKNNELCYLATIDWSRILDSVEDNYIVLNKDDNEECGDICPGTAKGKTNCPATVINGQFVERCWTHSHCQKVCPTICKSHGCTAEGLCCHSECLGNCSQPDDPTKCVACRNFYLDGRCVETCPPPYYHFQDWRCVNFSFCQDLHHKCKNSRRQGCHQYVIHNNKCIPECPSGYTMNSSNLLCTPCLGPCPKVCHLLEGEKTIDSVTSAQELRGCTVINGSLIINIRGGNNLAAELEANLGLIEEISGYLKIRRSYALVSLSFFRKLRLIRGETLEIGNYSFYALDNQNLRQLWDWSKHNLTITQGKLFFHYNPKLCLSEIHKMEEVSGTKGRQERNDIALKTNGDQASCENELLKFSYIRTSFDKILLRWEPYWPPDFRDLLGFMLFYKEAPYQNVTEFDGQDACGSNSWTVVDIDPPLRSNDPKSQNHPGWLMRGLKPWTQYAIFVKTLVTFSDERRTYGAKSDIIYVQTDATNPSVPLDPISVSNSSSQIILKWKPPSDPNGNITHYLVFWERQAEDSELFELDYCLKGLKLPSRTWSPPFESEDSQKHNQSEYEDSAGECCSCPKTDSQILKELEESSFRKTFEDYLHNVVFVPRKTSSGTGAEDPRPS
Insulin receptor (Homo sapiens), sequence (P06213 763-1382 limits assumed): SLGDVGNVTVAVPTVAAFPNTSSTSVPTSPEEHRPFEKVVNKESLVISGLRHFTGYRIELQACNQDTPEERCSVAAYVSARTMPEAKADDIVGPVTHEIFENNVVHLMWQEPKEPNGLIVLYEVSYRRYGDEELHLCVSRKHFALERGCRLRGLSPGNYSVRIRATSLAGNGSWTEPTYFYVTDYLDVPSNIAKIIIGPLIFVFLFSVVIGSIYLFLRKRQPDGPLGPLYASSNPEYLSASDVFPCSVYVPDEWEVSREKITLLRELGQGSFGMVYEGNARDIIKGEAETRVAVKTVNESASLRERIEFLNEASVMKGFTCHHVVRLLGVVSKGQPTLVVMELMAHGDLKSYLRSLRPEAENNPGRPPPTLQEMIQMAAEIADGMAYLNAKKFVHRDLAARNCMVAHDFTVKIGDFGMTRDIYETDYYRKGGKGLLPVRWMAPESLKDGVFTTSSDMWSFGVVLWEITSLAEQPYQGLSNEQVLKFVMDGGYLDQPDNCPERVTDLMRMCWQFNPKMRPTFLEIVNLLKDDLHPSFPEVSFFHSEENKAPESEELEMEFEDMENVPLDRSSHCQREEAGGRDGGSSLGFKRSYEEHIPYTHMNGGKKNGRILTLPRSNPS

C/C=C/Cn1cc(-c2ccc(C(=O)N3CCOCC3)cc2)c2cc[nH]c2c1=O
inhibition [1]: 1.1%
IC50 (NCI-H1666): 19.5 µM
Kd [2]: 28 µM
IC50 (CAL-51): 20 µM
inhibition [3]: 0.9%
IC50 [4]: 20 µM
IC50 (RL): 16.6 µM
IC50 (LoVo): 20 µM
inhibition [5]: 21.4%
IC50 (NAMALVA): 20 µM
IC50 [6]: 20 µM
inhibition [7]: -4.3%
Kd [8]: 6.3 µM
IC50 (RKO): 20 µM
Activity (Homo sapiens): -5%
IC50 (LCLC-97TM1): 20 µM
IC50 (NCI-H520): 20 µM
inhibition [9]: -4.9%
IC50 (HCT-15): 20 µM
Kd (Protein polybromo-1): 26 µM
IC50 [10]: 17.7 µM
IC50 (KNS-62): 20 µM
Kd [11]: 1.7 µM
Activity (Rattus norvegicus): 13%
inhibition [12]: -4.6%
Kd [13]: 4 µM
IC50 (UACC-62): 20 µM
IC50 (MDA-MB-157): 20 µM
IC50 [14]: 20 µM

C/C=C/Cn1cc(-c2ccc(C(C)(C)O)cc2OC)c2cc[nH]c2c1=O
inhibition [1]: 4.5%
IC50 (NCI-H1666): 20 µM
Kd [2]: > 10 µM
IC50 (CAL-51): 20 µM
inhibition [3]: 7%
IC50 [4]: 20 µM
IC50 (RL): 14.8 µM
IC50 (LoVo): 20 µM
inhibition [5]: 12.5%
IC50 (NAMALVA): 20 µM
IC50 [6]: 20 µM
inhibition [7]: 5.5%
Kd [8]: 3.2 µM
IC50 (RKO): 20 µM
Activity (Homo sapiens): -6%
IC50 (LCLC-97TM1): 20 µM
IC50 (NCI-H520): 20 µM
inhibition [9]: 6%
IC50 (HCT-15): 14.6 µM
Kd (Protein polybromo-1): > 10 µM
IC50 [10]: 20 µM
IC50 (KNS-62): 14.7 µM
Kd [11]: 1.6 µM
Activity (Rattus norvegicus): -21%
inhibition [12]: -0.5%
Kd [13]: 2.7 µM
IC50 (UACC-62): 20 µM
IC50 (MDA-MB-157): 20 µM
IC50 [14]: 20 µM

C/C=C/Cn1cc(-c2cc(OC)c(C(=O)N3CCOCC3)cc2OC)c2cc(C)[nH]c2c1=O
inhibition [1]: 3%
IC50 (NCI-H1666): 2 µM
Kd [2]: > 10 µM
IC50 (CAL-51): 2 µM
inhibition [3]: 3%
IC50 [4]: 2 µM
IC50 (RL): 2 µM
IC50 (LoVo): 2 µM
inhibition [5]: 12%
IC50 (NAMALVA): 2 µM
IC50 [6]: 2 µM
inhibition [7]: 3.5%
Kd [8]: > 10 µM
IC50 (RKO): 2 µM
Activity (Homo sapiens): -5%
IC50 (LCLC-97TM1): 2 µM
IC50 (NCI-H520): 2 µM
inhibition [9]: -3.5%
IC50 (HCT-15): 2 µM
Kd (Protein polybromo-1): > 10 µM
IC50 [10]: 2 µM
IC50 (KNS-62): 2 µM
Kd [11]: > 10 µM
Activity (Rattus norvegicus): 86%
inhibition [12]: -1.5%
Kd [13]: > 10 µM
IC50 (UACC-62): 2 µM
IC50 (MDA-MB-157): 2 µM
IC50 [14]: 2 µM

C/C=C/Cn1cc(-c2cc(OC)c(C(C)(C)O)cc2OC)c2cc(C)[nH]c2c1=O
Kd [2]: > 10 µM
Kd [8]: 9.2 µM
Kd (Protein polybromo-1): > 10 µM
Kd [11]: 9.4 µM
Kd [13]: > 10 µM
